Experimental data reported in article PMC3154333, “Specificity of RSG-1.2 Peptide Binding to RRE-IIB RNA Element of HIV-1 over Rev Peptide Is Mainly Enthalpic in Origin” (PLoS ONE, 2011).
Several values for one entry are separate records, joined by “and”; a condition that tells them apart may be missing. Equal values may be shown once. Entries after “also recorded” stand apart in the source; their conditions may differ.

Experiments:
[1] = tested on: RRE-IIB RNA; test: Isothermal titration calorimetry (ITC) of peptide binding to RRE-IIB; parameters: species or system HIV-1; conditions: for N1 / N2: ITC stoichiometry; for N1 / ΔH1 (binding enthalpy ΔH) / TΔS1: first site; for N1 / N2 / ΔH1 (binding enthalpy ΔH) / Ka2 / TΔS2 / ΔH2 / TΔS1: two-site model; for N2 / Ka2 / TΔS2 / ΔH2: second (low affinity) site; for ΔH1 (binding enthalpy ΔH): 350 µM peptide into 10 µM RRE-IIB, corrected for heat of dilution, pH 7.5, 50 mM NaCl; for Ka1 / TΔS1: RSG-1.2 mutants; for Ka1: high affinity site, model for two set of binding sites, 10 mM sodium cacodylate, 0.1 mM EDTA, 50 mM NaCl, ± = SD of data from fitted curve; for TΔS1: derived from fits of ITC profiles
Experimental: (§1) Fluorescence labeled RNA having 2-Aminopurine (2-AP) at U72 position of RRE-IIB was obtained from Ocimum Biosolutions Ltd. Netherlands. All the stock solutions were prepared in Milli-Q water. Other reagents were commercially available and were of analytical grade quality and used without any further purification. All the experiments were performed using 10 mM sodium cacodylate buffer containing 0.1 mM EDTA and 50 mM NaCl at pH 7.5.
(§2) Isothermal titration calorimetry measurements were conducted at 25°C on a Microcal VP-ITC (Microcal, Inc.; Northampton MA). Titration of RRE-IIB with Rev as well as RSG-1.2 were done by injecting 4 µL aliquots of 350 µM peptide from a 250 µL rotating syringe (350 rpm) into an isothermal sample chamber containing 1.5 mL of 10 µM RRE-IIB solution. Each experiment of this type was accompanied by the corresponding control experiment in which 350 µM peptide were injected into a solution of buffer alone. The duration of each injection was 8 s and the delay between the injections was 300 s, the initial delay prior to the first injection was 200 s. Each injection generated a heat burst curve (microcalories/second vs. seconds) and the area under each curve was determined by integration [using origin version 7.0 software (Microcal, Inc.; Northampton, MA)] to obtain the measure of heat associated with that injection. The buffer corrected ITC profiles for the binding of Rev and RSG-1.2 were fit with a model for two set of binding site. The net enthalpy change for RRE-IIB stem loop interaction with Rev and RSG-1.2 were determined by subtraction of the heat of dilution.

[2] = tested on: RRE-IIB RNA; test: CD spectroscopy of RRE-IIB with peptides; assay type: binding, HIV-1; conditions: 5 µM RNA, pH 7.5, 25°C
Experimental: Circular dichroism (CD) spectra were recorded on a Jasco spectropolarimeter (model J815, Japan) equipped with a thermoelectrically controlled cell holder. The cuvette used for acquiring spectra was of 1 cm in path length. CD spectra were recorded from 350 nm to 200 nm; with accumulation of 3 and averaged at 25°C. The buffer solution contained 10 mM sodium cacodylate buffer, 0.1 mM EDTA and 50 mM NaCl at pH 7.5. In a titration experiment RNA concentration was fixed at 5 µM and the peptides concentration varied from 0–25 µM.

[3] = tested on: RRE-IIB RNA; test: Temperature dependent ITC (heat capacity change); assay type: binding, HIV-1; conditions: ITC at 10, 20, 25 and 35°C, pH 7.5
Experimental: as §2
Heat capacity changes (ΔCp), that accompany the peptide binding to RNA can be determined by performing temperature dependent ITC experiments under same buffer conditions. […]

[4] = tested on: 2-AP labeled RRE-IIB RNA; test: Fluorescence titration of 2-AP labeled RRE-IIB with peptides; assay type: binding, HIV-1; conditions: pH 7.5, 25°C
Experimental: as §1
Steady state fluorescence spectra were collected using Xe 900 lamp of Edinburgh instruments Spectrofluorometer equipped with thermoelectrically controlled cell holders. The excitation of the sample was done at 320 nm wavelength and fluorescence spectra were collected from 340 nm to 450 nm. The excitation as well as emission slit width were kept at 3 nm. A quartz cell of 1 cm path length, transparent from four sides, was used. All the experiments were conducted at 25°C. RNA concentration was fixed at 0.1 µM and the peptide concentration was varied from 0–0.3 µM. The buffer solution contained 10 mM sodium cacodylate buffer, 0.1 mM EDTA and 50 mM NaCl at pH 7.5 and 25°C. The changes in the fluorescence intensity at 370 nm were monitored as a function of increase in peptide concentration. For data analysis, the observed fluorescence intensity was considered as the sum of the weighted contributions from a peptide bound and an unbound RNA form. [drawing 1] (1)
Where F corresponds to the observed fluorescence intensity at each titrant concentration, F0 and Fb are the respective fluorescence intensities of initial and final states of titration, α is the mole fractions of RNA in bound form. Assuming 1∶1 stoichiometry for the interaction, it can be shown that: [drawing 2] (2)
Where Ka is the association constant, [R0] is the total RNA concentration and [Lt] is the added peptide concentration. From Equations (1) and (2), it can be shown that: [drawing 3] (3)
Where ΔF = F – F0 and ΔFmax = Fmax – F0
The free energy of binding was calculated from the standard relation ΔG = -RTlnKa where R is the universal gas constant and T is the absolute temperature in Kelvin.
Fluorescence spectroscopy is a useful tool for determining binding constants of two interacting partners. We employed this tool for determining binding affinity of Rev and RSG-1.2 with the RRE-IIB RNA stem loop structure. In order to carry out fluorescence titration, RRE-IIB RNA was fluorescently labeled by incorporating 2-Aminopurine (2-AP) at position U72. […] All the fluorescence titrations were performed using 10 mM sodium cacodylate buffer containing 0.1 mM EDTA and 50 mM NaCl at pH 7.5 and at 25°C. […] Normalized change in fluorescence intensity at 370 nm was plotted against molar concentration of peptide. […]

[5] = tested on: RRE-IIB RNA; test: Temperature dependent UV melting of RRE-IIB with peptides; assay type: binding, HIV-1; conditions: pH 7.5
Experimental: Temperature dependent UV melting experiments were carried out using a Cary 100 (Varian) Spectrophotometer equipped with thermoelectrically controlled cell holder. A quartz cell of 1cm path length was used for all absorbance studies. Temperature dependent absorption spectra were obtained at 260 nm with rate of 0.5°C/min. increase in temperature, from 40 to 95°C. In these experiments the concentration of RNA was kept 1 µM and peptide concentration was increased from 0–3 µM. The buffer solution contained 10 mM sodium cacodylate buffer, 0.1 mM EDTA and 50 mM NaCl at pH 7.5. For each optically detected transition, the melting temperature (Tm) was determined using previously described methods.

Sequence	N1 ([1]; pH 7.5, 25°C)	N2 ([1]; pH 7.5, 25°C)	ΔH1 (binding enthalpy ΔH) ([1]; ITC, 25°C)	Ka1 ([1]; ITC, pH 7.5, 25°C)	Ka2 ([1]; ITC, pH 7.5, 25°C)	TΔS2 ([1]; ITC, pH 7.5, 25°C)	ΔH2 ([1]; ITC, pH 7.5, 25°C)	TΔS1 ([1]; pH 7.5, 25°C)	further results
DRRRRGSRPSGAERKRRRAAAA [R15K]	1.6	1.6	-8.7 ± 0.1 kcal/mol	2.4±0.7 M^−1 × 10^7	7.0±0.2 M^−1 × 10^5	5.5 ± 0.1 kcal/mol	-2.4 ± 0.3 kcal/mol	1.3 ± 0.2 kcal/mol	–
DRRRRGSRPSGAERRDRRAAAA [R15D]	1.5	1.5	-3.9 ± 0.1 kcal/mol	2.9±0.4 M^−1 × 10^7	14.2±0.2 M^−1 × 10^5	7.3 ± 0.4 kcal/mol	-1.0 ± 0.1 kcal/mol	6.2 ± 0.3 kcal/mol	–
DTRQARRNRRRRWRERQRAAAAR [Rev, minimal arginine rich Rev peptide of HIV-1 ([…])]	–	–	≈ 0 kcal/mol and 0 kcal/mol	–	–	–	–	–	CD signal of RRE-IIB at 240 nm and 210 nm ([2]; peptide 0–25 µM (up to 5∶1), 10 mM sodium cacodylate, 50 mM NaCl, 0.1 mM EDTA): became more negative at 240 nm and 210 nm; CD signal of RRE-IIB at 265 nm ([2]; up to 5∶1 peptide): no significant change was observed at 265 nm; heat changes / enthalpy of binding (in words) ([1]; ITC, 25°C, pH 7.5): small; also recorded: almost zero enthalpy of interaction; also recorded: negligible enthalpy; TΔS1 (TΔS) ([1]; calculated by ΔG = ΔH − TΔS from fluorescence Ka and ITC ΔH (footnote c), pH 7.5, 25°C): 10.2±0.2 kcal/mol and 10.2±0.2 ^c kcal/mol; TΔS ([1]; calculated by ΔG = ΔH − TΔS, 25°C, pH 7.5): 10.2 ± 0.2 kcal/mol; thermodynamic driving force ([1]; from ΔH and TΔS, 25°C, pH 7.5): essentially entropically driven; also recorded: exclusively entropy driven; change in heat capacity (in words) [3]: essentially no change in heat capacity; temperature dependence of binding enthalpy [3]: does not show any change in enthalpy of binding; also recorded: no change in binding enthalpy; change in fluorescence intensity of 2-AP RRE-IIB ([4]; 0.1 µM RNA, 370 nm): fluorescence intensity increased upon addition of peptide; association constant Ka ([4]; 2-AP at U72, 0.1 µM RNA, 370 nm, 10 mM sodium cacodylate, 0.1 mM EDTA, 50 mM NaCl, fit with equation 3 (1∶1)): 3.1±0.4×10^7 M^−1; Ka1 ([4]; fluorescence binding studies (footnote b), 2-AP at U72, 0.1 µM RNA, peptide 0–0.3 µM, ex 320 nm/em 370 nm, 10 mM sodium cacodylate, 0.1 mM EDTA, 50 mM NaCl, 1∶1 fit): 3.1±0.4 ^b M^−1 × 10^7; ΔG (Gibb's free energy of binding) ([4]; ΔG = -RTlnKa, fluorescence Ka): -10.2 ± 0.1 kcal/mol; ΔTm (increase in Tm of RRE-IIB; Tm of RNA alone 67.3°C) ([5]; peptide to RNA molar ratio 1∶1, 1 µM RNA, 260 nm, 0.5°C/min, 10 mM sodium cacodylate, 50 mM NaCl, 0.1 mM EDTA): 1 °C; change in Tm at higher peptide ratios ([5]; ratios above 1∶1 (2∶1 and 3∶1), 1 µM RNA): negligible changes were observed
